This note sets out measurements from patent US10233177B2, “TRPV1 vanilloid receptor antagonists with a bicyclic portion” (Serentrix LLC, priority 2010, dated 2019).

Where two headings read alike, the source gives them in different places.

The target of this test is TRPV1 (Rattus norvegicus (Rat), UniProt O35433). The experiment in a line: Ca2+ fluorescence measurements in cultured rat dorsal root ganglia neurons (capsaicin-induced calcium uptake). Format: cell-based. Conditions: for inhibition at 0.3 µM: DRG neuron.
Setting [1] is: Table 1, formula IA-C, 300 nM against calcium uptake induced by 30 nM capsaicin, rat DRG neurons, read-out: % inhibition at 300 nM.
Setting [2] is: Table 1, against capsaicin-evoked [Ca2+]i mobilization, rat DRG neurons, read-out: IC50.
Setting [3] is: 300 nM, rat DRG neurons, read-out: abolition of capsaicin response at 300 nM.
[4] abbreviates: capsaicin-induced calcium uptake, rat DRG neurons, read-out: inhibition of the calcium uptake.

Chain of TRPV1 (O35433 whole entry): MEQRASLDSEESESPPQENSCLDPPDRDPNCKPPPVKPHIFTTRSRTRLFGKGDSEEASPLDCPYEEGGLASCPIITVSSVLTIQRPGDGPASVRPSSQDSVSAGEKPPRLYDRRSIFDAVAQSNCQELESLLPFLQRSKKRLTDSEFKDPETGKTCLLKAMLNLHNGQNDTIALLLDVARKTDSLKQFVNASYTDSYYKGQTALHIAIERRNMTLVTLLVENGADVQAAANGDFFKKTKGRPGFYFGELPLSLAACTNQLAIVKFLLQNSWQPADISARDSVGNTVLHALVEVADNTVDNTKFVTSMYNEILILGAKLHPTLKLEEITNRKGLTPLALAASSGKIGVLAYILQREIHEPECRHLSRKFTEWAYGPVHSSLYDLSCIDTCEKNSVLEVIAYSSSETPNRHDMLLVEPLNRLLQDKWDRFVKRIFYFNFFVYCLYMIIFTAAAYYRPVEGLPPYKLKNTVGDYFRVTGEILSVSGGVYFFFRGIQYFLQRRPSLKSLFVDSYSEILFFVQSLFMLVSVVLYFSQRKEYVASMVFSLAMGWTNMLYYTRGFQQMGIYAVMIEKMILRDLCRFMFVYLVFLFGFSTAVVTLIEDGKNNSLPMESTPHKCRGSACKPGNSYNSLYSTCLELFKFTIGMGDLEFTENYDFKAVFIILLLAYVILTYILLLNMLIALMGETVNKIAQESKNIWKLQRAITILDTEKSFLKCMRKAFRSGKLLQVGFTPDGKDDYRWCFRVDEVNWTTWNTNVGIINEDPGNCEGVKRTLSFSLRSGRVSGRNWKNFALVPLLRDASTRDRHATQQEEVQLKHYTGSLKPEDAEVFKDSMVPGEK

For `CN(C)c1ccc(CNC(=O)Nc2cccc3[nH]c(=O)[nH]c23)cc1` [Example 14, 1-(4-(dimethylamino)benzyl)-3-(2,3-dihydro-2-oxo-1H-benzo[d]imidazol-4-yl)urea], the inhibition at 0.3 µM under setting [1] came out at 32%.

In the case of `O=C1COc2c(cccc2C(=O)NCc2ccc(C(F)(F)F)cc2N2CCCCC2)N1` [Example 64, N-(4-(trifluoromethyl)-2-(piperidin-1-yl)benzyl)-3,4-dihydro-3-oxo-2H-benzo[b][1,4]oxazine-8-carboxamide], the inhibition at 0.3 µM (Table 3, formula IF-H, 300 nM against calcium uptake induced by 30 nM capsaicin, rat DRG neurons, read-out: % inhibition at 300 nM) was 65%. As for `O=C1COc2cccc(NC(=O)NCc3ccc(C(F)(F)F)cc3N3CCCCC3)c2N1` [Example 44, 1-(4-(trifluoromethyl)-2-(piperidin-1-yl)benzyl)-3-(3,4-dihydro-3-oxo-2H-benzo[b][1,4]oxazin-5-yl)urea], the inhibition at 0.3 µM under setting [1] stood at 47%.

One may read the IC50 as the concentration that gives 50% inhibition. In the case of `CN(C)CCOc1nc(C(F)(F)F)ccc1CNC(=O)Nc1cccc2[nH]c(=O)[nH]c12` [Example 72, 1-[[2-(2-dimethylaminoethoxy)-6-(trifluoromethyl)-3-pyridyl]methyl]-3-(2-oxo-1,3-dihydrobenzimidazol-4-yl)urea], under setting [1], the inhibition at 0.3 µM turned out to be 40%. Besides, the half-inhibitory concentration (IC50) under setting [2] worked out at 6 nM. Consider `O=C1COc2cccc(NC(=O)NCc3ccc(C(F)(F)F)cc3)c2N1` [Example 42, 1-(4-(trifluoromethyl)benzyl)-3-(3,4-dihydro-3-oxo-2H-benzo[b][1,4]oxazin-5-yl)urea], for which, under setting [1], the inhibition at 0.3 µM amounted to 30%. As to `Cc1ccc(CNC(=O)Nc2cccc3[nH]c(=O)[nH]c23)cc1` [Example 17, 1-(4-methylbenzyl)-3-(2,3-dihydro-2-oxo-1H-benzo[d]imidazol-4-yl)urea], the inhibition at 0.3 µM under setting [1] came to 44%. The same measure, in the same setting: under `O=C(NCc1ccc(C(F)(F)F)nc1)Nc1cccc2[nH]c(=O)[nH]c12` [Example 66, 1-(2-oxo-1,3-dihydrobenzimidazol-4-yl)-3-[[6-(trifluoromethyl)-3-pyridyl]methyl]urea] stands 71%.

Turning to `O=C(NCc1ccc(C(F)(F)F)cc1N1CCCCC1)Nc1cccc2[nH]c(=O)oc12` [Example 36, 1-(4-(trifluoromethyl)-2-(piperidin-1-yl)benzyl)-3-(2,3-dihydro-2-oxobenzo[d]oxazol-7-yl)urea], the inhibition at 0.3 µM is about 100% under setting [3], 100% under setting [1] and over 80% under setting [4]. One may read the % inhibition as the share of the control response that was lost under treatment. For `O=C(NCc1ccc(C(F)(F)F)nc1N1CCCC1)Nc1cccc2[nH]c(=O)[nH]c12` [Example 39, 1-(2-oxo-1,3-dihydrobenzimidazol-4-yl)-3-[[2-pyrrolidin-1-yl-6-(trifluoromethyl)-3-pyridyl]methyl]urea], where the note is “300 nM, rat DRG neurons”, the “abolition of capsaicin response at 300 nM” value was “around 100%”. Further, the “% inhibition at 300 nM” value (Table 1, formula IA-C, 300 nM against calcium uptake induced by 30 nM capsaicin, rat DRG neurons) was determined as 98%. The concentration for half-maximal inhibition (IC50) under setting [2] was found to be 9.5 nM. Besides, the “inhibition of the calcium uptake” value (capsaicin-induced calcium uptake, rat DRG neurons) was “more than 80%”.

Turning to `CN(C)c1cc(Cl)ccc1CNC(=O)Nc1cccc2c1OCC(=O)N2` [Example 50, 1-(4-chloro-2-(dimethylamino)benzyl)-3-(3,4-dihydro-3-oxo-2H-benzo[b][1,4]oxazin-8-yl)urea], under setting [1], the inhibition at 0.3 µM worked out at 52%.

As to `O=C(NCc1ccc(C(F)(F)F)cc1N1CCOCC1)Nc1cccc2[nH]c(=O)[nH]c12` [Example 7, 1-(4-(trifluoromethyl)-2-(4-morpholino)benzyl)-3-(2,3-dihydro-2-oxo-1H-benzo[d]imidazol-4-yl)urea], the inhibition at 0.3 µM under setting [1] is 33%. With `O=C1COc2c(cccc2NC(=O)NCc2ccc(C(F)(F)F)o2)N1` [Example 76, 1-(3-oxo-4H-1,4-benzoxazin-8-yl)-3-[[5-(trifluoromethyl)-2-furyl]methyl]urea], under setting [1], the inhibition at 0.3 µM was found to be 40%. With `CC(C)(C)c1ccc(CNC(=O)Nc2cccc3[nH]c(=O)[nH]c23)c(N2CCCC2)c1` [Example 75, 1-[(4-tert-butyl-2-pyrrolidin-1-yl-phenyl)methyl]-3-(2-oxo-1,3-dihydrobenzimidazol-4-yl)urea], the inhibition at 0.3 µM is, setting by setting: under setting [3], about 100%; under setting [1], 100%; under setting [4], over 80%. The IC50 came out at 0.84 nM under setting [2] and 0.84 nM (rat DRG neurons, read-out: IC50 against capsaicin-evoked [Ca2+]i mobilization). As to `O=C(NCc1ccc(F)cc1)Nc1cccc2[nH]c(=O)[nH]c12` [Example 9, 1-(4-fluorobenzyl)-3-(2,3-dihydro-2-oxo-1H-benzo[d]imidazol-4-yl)urea], under setting [1], the inhibition at 0.3 µM came out at 18%. Turning to `O=C(NCc1ccc(C(F)(F)F)cc1N1CCCC1)Nc1cccc2[nH]c(=O)oc12` [Example 35, 1-(4-(trifluoromethyl)-2-(pyrrolidin-1-yl)benzyl)-3-(2,3-dihydro-2-oxobenzo[d]oxazol-7-yl)urea], the inhibition at 0.3 µM under setting [1] came to 90% and the inhibition at 0.3 µM under setting [4] was over 80%. Turning to `O=C1COc2c(cccc2NC(=O)NCc2ccc(C(F)(F)F)cc2-n2ccnc2)N1` [Example 88, 1-[[2-(imidazol-1-yl)-4-(trifluoromethyl)phenyl]methyl]-3-(3-oxo-4H-1,4-benzoxazin-8-yl)urea], under setting [1], the inhibition at 0.3 µM worked out at 75%. For the compound `O=C(NCc1ccc(C(F)(F)F)cc1F)Nc1cccc2oc(=O)[nH]c12` [Example 25, 1-(2-fluoro-4-(trifluoromethyl)benzyl)-3-(2,3-dihydro-2-oxobenzo[d]oxazol-4-yl)urea], under setting [1], the inhibition at 0.3 µM is 40%.

On to `COc1cc(CNC(=O)CCCC/C=C/C(C)C)ccc1O` [Capsaicin, capsaicin, reference compound], for which the “dorsal root ganglia neurons with increase in [Ca2+]” value (capsaicin 0.3 μM) was determined as 95%. `Cc1ccc(CNC(=O)Nc2cccc3[nH]c(=O)[nH]c23)c(N(C)C)c1` [Example 18, 1-(2-(dimethylamino)-4-methylbenzyl)-3-(2,3-dihydro-2-oxo-1H-benzo[d]imidazol-4-yl)urea]: the inhibition at 0.3 µM under setting [1] was determined as 54%. `O=C(NCc1ccc(C(F)(F)F)cn1)Nc1cccc2[nH]c(=O)[nH]c12` [Example 41, 1-(2-oxo-1,3-dihydrobenzimidazol-4-yl)-3-[[5-(trifluoromethyl)-2-pyridyl]methyl]urea]: the inhibition at 0.3 µM is 88% under setting [1] and over 80% under setting [4]. On to `O=C1COc2c(cccc2NC(=O)NCc2ccc(C(F)(F)F)nc2N2CCCC2)N1` [Example 87, 1-(3-oxo-4H-1,4-benzoxazin-8-yl)-3-[[2-pyrrolidin-1-yl-6-(trifluoromethyl)-3-pyridyl]methyl]urea], for which the inhibition at 0.3 µM was about 100% under setting [3], 100% under setting [1] and over 80% under setting [4]. For the same compound, the IC50 under setting [2] came out at 9 nM. Turning to `O=C1COc2c(cccc2NC(=O)NCc2ccc(C(F)(F)F)nc2)N1` [Example 77, 1-(3-oxo-4H-1,4-benzoxazin-8-yl)-3-[[6-(trifluoromethyl)-3-pyridyl]methyl]urea], the inhibition at 0.3 µM under setting [1] was found to be 71%. As to `O=C(NCc1ccc(C(F)(F)F)cc1)Nc1cccc2[nH]c(=O)oc12` [Example 34, 1-(4-(trifluoromethyl)benzyl)-3-(2,3-dihydro-2-oxobenzo[d]oxazol-7-yl)urea], the inhibition at 0.3 µM under setting [1] came out at 19%.

In the case of `Cc1ccc(CNC(=O)Nc2cccc3c2OCC(=O)N3)c(OC(C)C)c1` [Example 84, 1-[(2-isopropoxy-4-methyl-phenyl)methyl]-3-(3-oxo-4H-1,4-benzoxazin-8-yl)urea], under setting [1], the inhibition at 0.3 µM came to 61%. On to `CC(C)(C)c1ccc(CNC(=O)Nc2cccc3[nH]c(=O)[nH]c23)c(Cl)c1` [Example 74, 1-[(4-tert-butyl-2-chloro-phenyl)methyl]-3-(2-oxo-1,3-dihydrobenzimidazol-4-yl)urea], for which the inhibition at 0.3 µM reads like this: under setting [3], about 100%; under setting [1], 100%; under setting [4], over 80%. Turning to `CN(C)c1nc(C(F)(F)F)ccc1CNC(=O)Nc1cccc2c1OCC(=O)N2` [Example 86, 1-[[2-dimethylamino-6-(trifluoromethyl)-3-pyridyl]methyl]-3-(3-oxo-4H-1,4-benzoxazin-8-yl)urea], the inhibition at 0.3 µM is, setting by setting: under setting [3], about 100%; under setting [1], 100%; under setting [4], over 80%. The IC50 under setting [2] was determined as 17 nM. Take `O=C(NCc1ccc(Cl)cc1N1CCC(O)C1)Nc1cccc2[nH]c(=O)[nH]c12` (stereo not drawn) [Example 22, 1-(4-chloro-2-(3-hydroxypyrrolidin-1-yl)benzyl)-3-(2,3-dihydro-2-oxo-1H-benzo[d]imidazol-4-yl)urea]: under setting [1], the inhibition at 0.3 µM worked out at 48%. For `O=C1COc2c(cccc2NC(=O)NCc2ccc(C(F)(F)F)cc2)N1` [Example 45, 1-(4-(trifluoromethyl)benzyl)-3-(3,4-dihydro-3-oxo-2H-benzo[b][1,4]oxazin-8-yl)urea], the inhibition at 0.3 µM is, setting by setting: under setting [3], about 100%; under setting [1], 100%; under setting [4], over 80%. In the case of `O=C(NCc1ccc(Cl)nc1)Nc1cccc2[nH]c(=O)[nH]c12` [Example 21, 1-((6-chloropyridin-3-yl)methyl)-3-(2,3-dihydro-2-oxo-1H-benzo[d]imidazol-4-yl)urea], under setting [1], the inhibition at 0.3 µM was 79%.

As to `COc1nc(C(F)(F)F)ccc1CNC(=O)Nc1cccc2c1OCC(=O)N2` [Example 82, 1-[[2-methoxy-6-(trifluoromethyl)-3-pyridyl]methyl]-3-(3-oxo-4H-1,4-benzoxazin-8-yl)urea], the inhibition at 0.3 µM runs as follows: under setting [1], 90%; under setting [4], over 80%. Further, the IC50 under setting [2] came to 54 nM.

In the case of `Cc1ccc(CNC(=O)Nc2cccc3c2OCC(=O)N3)c(N2CCCCC2)n1` [Example 80, 1-[[6-methyl-2-(1-piperidyl)-3-pyridyl]methyl]-3-(3-oxo-4H-1,4-benzoxazin-8-yl)urea], the inhibition at 0.3 µM is, setting by setting: under setting [3], about 100%; under setting [1], 95%; under setting [4], over 80%.
